Source: patent publication US11572590B2, “Methods for evaluating tumor cell spheroids using 3D microfluidic cell culture device” (Dana-Farber Cancer Institute, Inc., priority 2017, dated 2023)
Read-outs that look alike come from different tables or passages of the source.

Legend:
Test in all cases: SelectScreen Kinase Profiling, single point inhibition and IC50 for off-target kinases
Assay type in all cases: biochemical
off-target kinases [1] = molecular target: off-target kinases (Homo sapiens, UniProt Q9Y463); details: DYRK1B, ZLYTE, ATP Km app
off-target kinases [2] = molecular target: off-target kinases (Homo sapiens, UniProt P45984); details: MAPK9 (JNK2)
off-target kinases [3] = molecular target: off-target kinases (Homo sapiens, UniProt Q16816); details: PHKG1, ZLYTE, ATP Km app
off-target kinases [4] = molecular target: off-target kinases (Homo sapiens, UniProt Q15759); details: MAPK11 (p38 beta), ZLYTE, ATP Km app
off-target kinases [5] = molecular target: off-target kinases (Homo sapiens, UniProt P41279); details: MAP3K8 (COT), ZLYTE, ATP 100
off-target kinases [6] = molecular target: off-target kinases (Homo sapiens, UniProt P78527)
off-target kinases [7] = molecular target: off-target kinases (Homo sapiens, UniProt P30530, R499C); details: AXL R499C, mutant y, LanthaScreen Binding
off-target kinases [8] = molecular target: T1, off-target kinases (Homo sapiens, UniProt O00444); details: PLK4, LanthaScreen Binding
T1 sequence (O00444 1-970): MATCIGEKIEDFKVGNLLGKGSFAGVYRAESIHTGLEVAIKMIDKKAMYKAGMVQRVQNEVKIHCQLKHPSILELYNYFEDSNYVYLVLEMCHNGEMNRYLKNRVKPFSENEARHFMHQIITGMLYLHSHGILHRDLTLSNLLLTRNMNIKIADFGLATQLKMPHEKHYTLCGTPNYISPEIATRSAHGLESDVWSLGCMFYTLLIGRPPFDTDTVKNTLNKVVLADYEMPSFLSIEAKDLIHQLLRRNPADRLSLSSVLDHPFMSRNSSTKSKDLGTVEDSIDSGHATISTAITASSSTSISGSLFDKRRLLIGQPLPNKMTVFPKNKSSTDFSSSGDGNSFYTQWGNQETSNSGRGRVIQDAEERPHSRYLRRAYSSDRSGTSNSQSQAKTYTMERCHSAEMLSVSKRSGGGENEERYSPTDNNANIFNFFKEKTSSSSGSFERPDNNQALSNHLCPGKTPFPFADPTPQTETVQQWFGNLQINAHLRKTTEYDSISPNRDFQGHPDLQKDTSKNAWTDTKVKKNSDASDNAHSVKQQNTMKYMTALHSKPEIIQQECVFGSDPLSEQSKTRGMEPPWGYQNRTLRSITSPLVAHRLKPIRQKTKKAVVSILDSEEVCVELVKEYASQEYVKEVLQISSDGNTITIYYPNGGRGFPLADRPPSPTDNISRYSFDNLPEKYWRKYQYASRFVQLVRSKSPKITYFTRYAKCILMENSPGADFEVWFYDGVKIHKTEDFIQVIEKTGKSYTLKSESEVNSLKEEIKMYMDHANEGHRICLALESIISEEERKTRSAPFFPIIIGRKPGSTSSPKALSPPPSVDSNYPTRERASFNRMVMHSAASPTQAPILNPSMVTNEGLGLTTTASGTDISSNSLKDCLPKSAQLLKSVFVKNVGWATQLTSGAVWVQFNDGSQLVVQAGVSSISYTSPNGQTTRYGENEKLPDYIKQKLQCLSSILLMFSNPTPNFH

off-target kinases (Homo sapiens, UniProt P78527), sequence (P78527 whole entry): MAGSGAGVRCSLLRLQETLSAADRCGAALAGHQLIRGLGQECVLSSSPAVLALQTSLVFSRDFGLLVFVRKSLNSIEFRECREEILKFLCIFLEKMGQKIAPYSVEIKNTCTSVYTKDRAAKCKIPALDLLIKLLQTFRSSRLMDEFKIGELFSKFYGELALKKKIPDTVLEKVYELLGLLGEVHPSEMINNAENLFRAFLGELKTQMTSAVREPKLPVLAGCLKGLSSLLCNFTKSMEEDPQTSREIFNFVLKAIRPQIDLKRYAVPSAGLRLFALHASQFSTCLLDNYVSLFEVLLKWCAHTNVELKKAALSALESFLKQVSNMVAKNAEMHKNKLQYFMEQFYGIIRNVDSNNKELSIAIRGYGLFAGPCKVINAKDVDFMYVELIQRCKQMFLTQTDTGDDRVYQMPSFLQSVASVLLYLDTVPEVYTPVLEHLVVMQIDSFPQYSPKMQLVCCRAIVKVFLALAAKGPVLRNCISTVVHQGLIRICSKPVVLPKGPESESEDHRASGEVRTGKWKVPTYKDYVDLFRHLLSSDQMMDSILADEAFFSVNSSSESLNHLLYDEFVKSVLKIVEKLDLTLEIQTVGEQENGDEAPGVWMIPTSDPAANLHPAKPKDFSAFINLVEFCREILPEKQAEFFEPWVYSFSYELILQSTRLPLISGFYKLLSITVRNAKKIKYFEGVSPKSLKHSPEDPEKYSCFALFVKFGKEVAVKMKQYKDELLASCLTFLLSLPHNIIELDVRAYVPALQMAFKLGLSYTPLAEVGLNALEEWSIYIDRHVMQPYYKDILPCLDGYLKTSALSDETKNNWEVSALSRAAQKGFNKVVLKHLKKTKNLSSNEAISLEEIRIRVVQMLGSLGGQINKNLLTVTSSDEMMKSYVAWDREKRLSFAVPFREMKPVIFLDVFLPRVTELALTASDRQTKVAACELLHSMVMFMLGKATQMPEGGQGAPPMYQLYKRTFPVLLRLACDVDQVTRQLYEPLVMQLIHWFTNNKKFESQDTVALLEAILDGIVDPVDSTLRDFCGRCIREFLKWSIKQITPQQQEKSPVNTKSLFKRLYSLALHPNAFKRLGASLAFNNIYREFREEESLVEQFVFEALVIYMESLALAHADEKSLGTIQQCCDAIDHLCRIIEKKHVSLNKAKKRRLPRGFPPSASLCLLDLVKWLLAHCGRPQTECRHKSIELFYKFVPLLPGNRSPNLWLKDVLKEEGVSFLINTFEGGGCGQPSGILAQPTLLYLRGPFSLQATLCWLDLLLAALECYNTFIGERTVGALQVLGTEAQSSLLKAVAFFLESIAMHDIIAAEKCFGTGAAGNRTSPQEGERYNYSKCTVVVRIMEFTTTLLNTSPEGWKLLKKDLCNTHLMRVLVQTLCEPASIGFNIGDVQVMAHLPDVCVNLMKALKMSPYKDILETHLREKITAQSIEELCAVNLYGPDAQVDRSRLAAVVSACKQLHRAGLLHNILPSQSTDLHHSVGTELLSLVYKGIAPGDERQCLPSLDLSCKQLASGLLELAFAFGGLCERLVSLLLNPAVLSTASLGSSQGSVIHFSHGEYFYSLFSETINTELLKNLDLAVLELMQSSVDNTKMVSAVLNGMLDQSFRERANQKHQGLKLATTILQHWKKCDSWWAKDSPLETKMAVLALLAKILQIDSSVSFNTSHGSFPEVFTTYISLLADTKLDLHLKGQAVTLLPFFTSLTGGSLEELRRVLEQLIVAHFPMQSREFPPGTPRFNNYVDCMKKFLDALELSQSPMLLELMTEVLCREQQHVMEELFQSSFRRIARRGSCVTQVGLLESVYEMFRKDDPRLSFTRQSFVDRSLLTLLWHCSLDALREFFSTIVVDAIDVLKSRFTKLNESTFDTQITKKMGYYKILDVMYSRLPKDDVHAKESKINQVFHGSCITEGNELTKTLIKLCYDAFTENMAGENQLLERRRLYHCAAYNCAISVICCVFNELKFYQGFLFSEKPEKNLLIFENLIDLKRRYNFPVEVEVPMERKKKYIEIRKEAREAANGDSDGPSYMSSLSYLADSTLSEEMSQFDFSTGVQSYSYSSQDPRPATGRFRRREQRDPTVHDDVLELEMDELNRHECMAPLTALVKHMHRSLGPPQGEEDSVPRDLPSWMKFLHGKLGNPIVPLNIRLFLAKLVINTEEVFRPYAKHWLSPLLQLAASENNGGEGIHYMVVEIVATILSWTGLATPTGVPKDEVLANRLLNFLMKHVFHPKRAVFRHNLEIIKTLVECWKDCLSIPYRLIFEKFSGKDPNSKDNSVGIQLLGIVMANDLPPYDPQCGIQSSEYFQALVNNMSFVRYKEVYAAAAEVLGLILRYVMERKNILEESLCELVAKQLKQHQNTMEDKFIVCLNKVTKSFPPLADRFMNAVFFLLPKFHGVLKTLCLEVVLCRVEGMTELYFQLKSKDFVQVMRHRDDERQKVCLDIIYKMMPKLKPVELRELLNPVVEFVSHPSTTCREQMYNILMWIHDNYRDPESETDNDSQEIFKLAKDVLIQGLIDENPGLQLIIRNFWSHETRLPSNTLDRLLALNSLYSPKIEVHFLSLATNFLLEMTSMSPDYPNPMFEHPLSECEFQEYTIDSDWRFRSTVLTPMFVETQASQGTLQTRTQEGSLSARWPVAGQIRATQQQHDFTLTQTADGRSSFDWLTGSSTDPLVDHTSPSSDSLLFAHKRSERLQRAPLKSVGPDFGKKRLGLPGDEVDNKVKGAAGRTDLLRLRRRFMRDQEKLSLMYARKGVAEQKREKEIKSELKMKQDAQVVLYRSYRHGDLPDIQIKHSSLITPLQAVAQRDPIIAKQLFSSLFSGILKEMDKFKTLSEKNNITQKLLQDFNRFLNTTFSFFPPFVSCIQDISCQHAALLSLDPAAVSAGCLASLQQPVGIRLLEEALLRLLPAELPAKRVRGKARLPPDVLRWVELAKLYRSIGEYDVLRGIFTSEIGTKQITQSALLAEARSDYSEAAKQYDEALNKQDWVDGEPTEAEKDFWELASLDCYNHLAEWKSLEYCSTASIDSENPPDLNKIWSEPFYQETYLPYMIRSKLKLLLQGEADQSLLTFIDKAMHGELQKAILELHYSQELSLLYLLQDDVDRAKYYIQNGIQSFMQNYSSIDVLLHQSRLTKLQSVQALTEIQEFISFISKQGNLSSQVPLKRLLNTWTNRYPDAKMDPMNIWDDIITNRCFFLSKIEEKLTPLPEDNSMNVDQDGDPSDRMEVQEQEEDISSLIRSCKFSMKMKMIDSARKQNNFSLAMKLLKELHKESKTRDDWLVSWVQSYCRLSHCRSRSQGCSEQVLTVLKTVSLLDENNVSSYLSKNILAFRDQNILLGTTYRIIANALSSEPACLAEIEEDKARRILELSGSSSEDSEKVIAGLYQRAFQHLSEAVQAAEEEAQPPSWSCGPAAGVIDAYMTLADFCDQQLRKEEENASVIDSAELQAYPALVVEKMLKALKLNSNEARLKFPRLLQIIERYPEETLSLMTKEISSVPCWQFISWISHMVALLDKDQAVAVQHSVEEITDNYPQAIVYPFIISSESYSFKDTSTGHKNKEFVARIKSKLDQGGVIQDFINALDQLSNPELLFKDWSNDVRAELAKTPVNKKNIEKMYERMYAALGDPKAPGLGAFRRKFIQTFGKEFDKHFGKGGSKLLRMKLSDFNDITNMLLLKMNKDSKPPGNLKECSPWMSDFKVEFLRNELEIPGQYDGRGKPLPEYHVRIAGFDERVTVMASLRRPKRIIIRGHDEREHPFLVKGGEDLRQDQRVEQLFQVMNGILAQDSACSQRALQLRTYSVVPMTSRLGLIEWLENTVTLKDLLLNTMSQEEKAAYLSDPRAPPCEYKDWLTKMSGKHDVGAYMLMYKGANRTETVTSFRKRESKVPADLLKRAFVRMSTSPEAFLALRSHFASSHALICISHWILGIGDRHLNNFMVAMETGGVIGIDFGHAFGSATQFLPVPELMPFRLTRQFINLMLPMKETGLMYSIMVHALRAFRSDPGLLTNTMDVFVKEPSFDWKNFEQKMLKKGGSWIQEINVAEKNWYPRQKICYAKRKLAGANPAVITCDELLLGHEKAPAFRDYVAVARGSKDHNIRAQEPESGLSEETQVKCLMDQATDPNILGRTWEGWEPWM
off-target kinases (Homo sapiens, UniProt P45984), sequence (P45984 whole entry): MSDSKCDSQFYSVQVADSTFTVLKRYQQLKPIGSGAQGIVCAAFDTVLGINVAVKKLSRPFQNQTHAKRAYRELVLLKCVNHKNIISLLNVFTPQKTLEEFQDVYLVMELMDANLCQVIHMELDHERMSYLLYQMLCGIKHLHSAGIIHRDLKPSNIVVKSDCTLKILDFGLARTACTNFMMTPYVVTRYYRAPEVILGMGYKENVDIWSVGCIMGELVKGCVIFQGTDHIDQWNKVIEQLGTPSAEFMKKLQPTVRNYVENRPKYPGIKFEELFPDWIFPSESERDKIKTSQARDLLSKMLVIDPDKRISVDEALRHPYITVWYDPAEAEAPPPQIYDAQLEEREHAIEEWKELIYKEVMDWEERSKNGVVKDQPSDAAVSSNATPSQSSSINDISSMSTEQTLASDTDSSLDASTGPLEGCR
off-target kinases (Homo sapiens, UniProt Q9Y463), sequence (Q9Y463 whole entry): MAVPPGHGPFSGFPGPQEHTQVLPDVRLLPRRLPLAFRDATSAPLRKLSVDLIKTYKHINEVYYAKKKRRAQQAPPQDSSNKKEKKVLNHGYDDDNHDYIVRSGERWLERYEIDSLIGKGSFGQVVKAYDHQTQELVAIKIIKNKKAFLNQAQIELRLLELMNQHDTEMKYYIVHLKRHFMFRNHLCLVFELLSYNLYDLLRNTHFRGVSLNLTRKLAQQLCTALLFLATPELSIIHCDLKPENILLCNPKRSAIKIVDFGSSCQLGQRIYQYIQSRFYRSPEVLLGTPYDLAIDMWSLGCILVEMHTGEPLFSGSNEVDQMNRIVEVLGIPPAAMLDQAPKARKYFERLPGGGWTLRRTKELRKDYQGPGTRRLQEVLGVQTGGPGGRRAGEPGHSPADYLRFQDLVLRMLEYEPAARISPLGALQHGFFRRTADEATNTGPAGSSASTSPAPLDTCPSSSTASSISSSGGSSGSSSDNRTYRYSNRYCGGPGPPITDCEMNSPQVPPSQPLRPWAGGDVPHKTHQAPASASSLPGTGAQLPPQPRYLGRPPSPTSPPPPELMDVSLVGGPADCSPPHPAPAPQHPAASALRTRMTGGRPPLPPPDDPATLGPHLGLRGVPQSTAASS

Structure (SMILES): N#Cc1cc(-c2ncnc(Nc3ccc(N4CCN(C5COC5)CC4)cc3)n2)ccc1OC1CCOCC1 [Compound 1, 5-(4-((4-(4-(oxetan-3-yl)piperazin-1-yl)phenyl)amino)-1,3,5-triazin-2-yl)-2-((tetrahydro-2H-pyran-4-yl)oxy)benzonitrile]
- inhibition (off-target kinases [1]; read-out: % Inhibition 1): 14%
- inhibition (off-target kinases [1]; read-out: % Inhibition 2): 9%
- inhibition (off-target kinases [1]; read-out: % Inhibition Avg): 11%
- inhibition (off-target kinases [2]; LanthaScreen Binding, read-out: % Inhibition 1): 12%
- inhibition (off-target kinases [2]; LanthaScreen Binding, read-out: % Inhibition 2): 14%
- inhibition (off-target kinases [2]; LanthaScreen Binding, read-out: % Inhibition Avg): 13%
- inhibition (off-target kinases [2]; ZLYTE, ATP 100, read-out: % Inhibition 1): 12%
- inhibition (off-target kinases [2]; ZLYTE, ATP 100, read-out: % Inhibition 2): 21%
- inhibition (off-target kinases [2]; ZLYTE, ATP 100, read-out: % Inhibition Avg): 16%
- inhibition (off-target kinases [3]; read-out: % Inhibition 1): 39%
- inhibition (off-target kinases [3]; read-out: % Inhibition 2): 37%
- inhibition (off-target kinases [3]; read-out: % Inhibition Avg): 38%
- inhibition (off-target kinases [4]; read-out: % Inhibition 1): 6%
- inhibition (off-target kinases [4]; read-out: % Inhibition 2): 4%
- inhibition (off-target kinases [4]; read-out: % Inhibition Avg): 5%
- inhibition (off-target kinases [5]; read-out: % Inhibition 1): 19%
- inhibition (off-target kinases [5]; read-out: % Inhibition 2): 11%
- inhibition (off-target kinases [5]; read-out: % Inhibition Avg): 15%
- inhibition (off-target kinases [6]; DNA-PK, ZLYTE, ATP Km app, read-out: % Inhibition 1): 2%
- inhibition (off-target kinases [6]; DNA-PK, ZLYTE, ATP Km app, read-out: % Inhibition 2): -4%
- inhibition (off-target kinases [6]; read-out: % Inhibition Avg): -1%
- inhibition (off-target kinases [7]; read-out: % Inhibition 1): 28%
- inhibition (off-target kinases [7]; read-out: % Inhibition 2): 27%
- inhibition (off-target kinases [7]; read-out: % Inhibition Avg): 27%
- inhibition (off-target kinases [8]; read-out: % Inhibition 1): 96%
- inhibition (off-target kinases [8]; read-out: % Inhibition 2): 95%
- inhibition (off-target kinases [8]; read-out: % Inhibition Avg): 96%
